Literature values in the CATMoS acute toxicity set (Mansouri et al. 2021).
Values joined by “and” are separate entries in the source; they are usually repeats but may differ in a detail not shown here. Equal entries are not always repeated.

Assay: rat acute oral toxicity
Conditions: in vivo

COC(=O)C=CC(=O)OC
LD50: 2240 mg/kg

CN1C(C(=O)Nc2ccccn2)C(=O)c2sc(Cl)cc2S1(=O)=O (configuration not stated)
LD50: 5.73 mg/kg

CCOC(OCC)OCC
LD50: 7060 mg/kg

CCOc1ccc([N+](=O)[O-])cc1
LD50: 3300 mg/kg

CCNC(C)Cc1cccc(C(F)(F)F)c1 (configuration not stated)
LD50: 130 mg/kg

FC(F)(F)c1nc2c(Cl)c(Br)c(Cl)cc2[nH]1
LD50: 8.78 mg/kg

OC(CNCCNCC(O)COc1ccccc1)COc1ccccc1 (configuration not stated)
LD50: 2920 mg/kg

C1CN2CCC1CC2
LD50: 81.2 mg/kg

Cc1nccnc1C
LD50: 613 mg/kg

CCS(=O)(=O)Cl
LD50: 360 mg/kg

CCc1cc2c(s1)N(C)C(=O)CN=C2c1ccccc1Cl
LD50: 1460 mg/kg

CCOC(=O)Nc1ccc2c(c1)N(C(=O)CN(C)C)c1ccccc1CC2
LD50: 78 mg/kg

CC(C(=O)O)c1ccc(CC2CCCC2=O)cc1 (configuration not stated)
LD50: 145 mg/kg

C=CC(=O)OCC(C)OCC(C)OCC(C)OC(=O)C=C (configuration not stated)
LD50: 6200 mg/kg

Nc1ccc(O)c(N)c1
LD50: 240 mg/kg

NCCC[C@H](N)C(=O)O
LD50: 10000 mg/kg

Clc1cccc(Cl)c1N=C1NCCN1
LD50: 126 mg/kg

Nc1nc(N)nc(NC2CC2)n1
LD50: 3390 mg/kg

O=C(O)c1ccccc1C(=O)Nc1ccccc1
LD50: 8840 mg/kg

CC(NC(C)(C)C)C(=O)c1cccc(Cl)c1 (configuration not stated)
LD50: 482 mg/kg and 600 mg/kg

CN1C(=O)OC(C)(C)C1=O
LD50: 2140 mg/kg

Oc1cccc2cccnc12
LD50: 1200 mg/kg

CCOC(=O)N1CC=Cc2ccccc21
LD50: 195 mg/kg

CCCCCCc1ccc(C(C[n+]2ccccc2)OCC(CC)CCCC)cc1 (configuration not stated)
LD50: 250 mg/kg

Oc1c(Cl)c(Cl)cc2[nH]c(C(F)(F)F)nc12
LD50: 52 mg/kg

NCCCC1(CCCN)c2ccccc2-c2ccccc21
LD50: 620 mg/kg

O=C(Cn1ccnc1)c1ccc2c(c1)Cc1ccccc1-2
LD50: 4550 mg/kg

CCCSP(=S)(OCC)Oc1ccc(Cl)cc1Cl (configuration not stated)
LD50: 875 mg/kg

O=C1c2ccc3c4c(ccc(c24)C(=O)C1(Cl)Cl)CC3
LD50: 10600 mg/kg

Cc1cccc(C)c1NC(=O)C1(N(C)C)CCN(C2CCCCC2O)CC1 (configuration not stated)
LD50: 4.83 mg/kg

CCCCOC(=S)S
LD50: 456 mg/kg

Nc1nnc(C=Cc2ccc([N+](=O)[O-])o2)s1
LD50: 1880 mg/kg

Oc1cccc(Oc2ccccc2)c1
LD50: 1210 mg/kg

CC(CN1C(=O)N(CC2CO2)C(C)(C)C1=O)OCC1CO1 (configuration not stated)
LD50: 1800 mg/kg

COc1ccc2nc3c(c(N)c2c1)CCCC3
LD50: 753 mg/kg

O=c1[nH]c(=O)n([C@H]2C[C@H](O)[C@@H](CO)O2)cc1F
LD50: 215 mg/kg

OCC(Cl)C(Cl)CO (configuration not stated)
LD50: 2830 mg/kg

NCC(O)CO (configuration not stated)
LD50: 7500 mg/kg

Cc1cc2[nH]c(C(F)(F)F)nc2cc1Cl
LD50: 55 mg/kg

CC(CN)CCCN (configuration not stated)
LD50: 1690 mg/kg

COc1cnc(C)s1
LD50: 1250 mg/kg

OCCC1CCCCC1
LD50: 940 mg/kg

CCC(CC)COC(=O)CCCCC(=O)OCC(CC)CC
LD50: 5620 mg/kg

CC(C)(C)CC(C)(C)c1ccc(OCCOS(=O)(=O)O)cc1
LD50: 27000 mg/kg

CCCCCCCCOC(=O)Oc1ccc([N+](=O)[O-])cc1[N+](=O)[O-]
LD50: 196 mg/kg

CC(C)=CCCC(C)CCO (configuration not stated)
LD50: 3450 mg/kg

O=C(Cl)C(Br)CBr (configuration not stated)
LD50: 1200 mg/kg

CC(C)C(=O)N(C)C(=O)Oc1cccc(C(C)C)c1
LD50: 631 mg/kg

Cc1ccccc1NCCO
LD50: 2200 mg/kg

C1CN1c1nc(N2CC2)nc(N2CC2)n1
LD50: 13 mg/kg

ClC(Cl)c1cccc(Oc2ccccc2)c1
LD50: 6000 mg/kg

CC(C(=O)OCCN1CCN(CCOC(=O)C(C)c2cccc3ccccc23)CC1)c1cccc2ccccc12 (configuration not stated)
LD50: 5550 mg/kg

COC(=O)C1CCc2cc(C3CCCCC3)ccc21 (configuration not stated)
LD50: 410 mg/kg and 254 mg/kg

N#C[Se]Cc1ccccc1
LD50: 98.5 mg/kg

CCCCC1(COC(=O)CCC(=O)O)C(=O)N(c2ccccc2)N(c2ccccc2)C1=O
LD50: 1700 mg/kg

CCN(CC)N=Nc1ccccc1
LD50: 520 mg/kg

COP(=S)(OC)SC
LD50: 15 mg/kg

O=C1CNC(=S)N1
LD50: 420 mg/kg

CC(=O)C=CC1C(C)C=C(C)CC1C (configuration not stated)
LD50: 5200 mg/kg

CNC(=O)Oc1cc([N+](C)(C)C)ccc1C
LD50: 2.5 mg/kg

CC1OCCO1
LD50: 2900 mg/kg

CC(N)=[Se]
LD50: 10 mg/kg

CCOP(=S)(OCC)SCC(N)=O
LD50: 10 mg/kg

CCCCOC(=O)N(C)SN(C)C(=O)Oc1cccc2c1OC(C)(C)C2
LD50: 53 mg/kg

CCOc1ccccc1N1CCN(CCCCc2ccc3c(c2)CCC(=O)N3)CC1
LD50: 500 mg/kg

COc1ccc2c(c1)c(CC(=O)NO)c(C)n2C(=O)c1ccc(Cl)cc1
LD50: 78 mg/kg

CC(Cc1ccccc1)NCCn1cnc2c1c(=O)n(C)c(=O)n2C (configuration not stated)
LD50: 100 mg/kg

C#CCOP(=O)(OCC(C)C)c1ccccc1 (configuration not stated)
LD50: 600 mg/kg

Cc1ccc(C(N)=O)cc1N
LD50: 1730 mg/kg

CCO[Si](CNCCCCCCN)(OCC)OCC
LD50: 500 mg/kg

C[C@H]1CCCCN1N=O
LD50: 600 mg/kg

ClC1=C(Cl)[C@]2(Cl)[C@H]3[C@H]([C@@H]4O[C@]4(Cl)[C@@H]3Cl)[C@@]1(Cl)C2(Cl)Cl (racemic)
LD50: 457 mg/kg

Cc1cc(=O)oc2cc(OP(=O)(OCCCl)OCCCl)ccc12
LD50: 141 mg/kg

O=C(O)CS(=O)(=O)O
LD50: 3160 mg/kg

COc1cc(C(O)C(C)NC(C)COc2ccccc2)ccc1O (configuration not stated)
LD50: 1280 mg/kg

COc1ccc2c(c1)N(C[C@H](C)CN(C)C)c1ccccc1S2
LD50: 1100 mg/kg

CNC(=O)ON=C1SC(=NC(C)C)SC1(C)C
LD50: 8.9 mg/kg

O=P(O)(O)OCC(Cl)(Cl)Cl
LD50: 850 mg/kg and 1900 mg/kg

CCCCN(CCCC)S(=O)(=O)c1ccc(Cl)cc1
LD50: 500 mg/kg

N#CC1(O)CCCCC1
LD50: 10 mg/kg

CCSC(C)CC1CC(=O)C(/C(CC)=N/OC/C=C/Cl)=C(O)C1 (configuration not stated)
LD50: 1360 mg/kg

COc1coc(CSP(=O)(OC)OC)cc1=O
LD50: 23 mg/kg

ON=C1C=CC(=NO)C=C1
LD50: 464 mg/kg

O=C(O)c1cc(I)cc(I)c1I
LD50: 2200 mg/kg and 813 mg/kg

CN(C)N
LD50: 122 mg/kg and 196 mg/kg

CC(=O)OC1CCCCC1C(C)(C)C (configuration not stated)
LD50: 4600 mg/kg

CNC(=O)c1cc(Cl)ccn1
LD50: 500 mg/kg

Ic1ccc(Nc2nnc(CCN3c4ccccc4Sc4ccccc43)s2)cc1
LD50: 3100 mg/kg

Cc1nc2ccccc2[se]1
LD50: 471 mg/kg

COC(=O)[C@H]1[C@H]2C[C@@H]3c4[nH]c5cc(OC)ccc5c4CCN3C[C@H]2C[C@H](OC)[C@@H]1OC
LD50: 182 mg/kg

CC[N+](CC)(CCNC(=O)C(=O)NCC[N+](CC)(CC)Cc1ccccc1Cl)Cc1ccccc1Cl
LD50: 18.5 mg/kg

C[N+]1(C)[C@@H]2CC[C@H]1C[C@@H](OC(=O)C(O)c1ccccc1)C2 (some centres not stated)
LD50: 1200 mg/kg

CCNc1nc(NC(C)C(C)C)nc(SC)n1 (configuration not stated)
LD50: 3000 mg/kg

CC(N)C1(C)CCCO1 (configuration not stated)
LD50: 130 mg/kg

CC(O)COC(C)(C)C (configuration not stated)
LD50: 3770 mg/kg

COP(=S)(OC)Oc1ccc2c(C)cc(=O)oc2c1
LD50: 15.6 mg/kg

CCc1ccc([N+]([O-])=Cc2ccccc2)cc1
LD50: 1340 mg/kg

COc1cc(N)cn[n+]1-c1ccccc1
LD50: 1330 mg/kg

CC1(C)[C@@H](OC(=O)CCC(=O)O)CC[C@]2(C)[C@H]3C(=O)C=C4[C@@H]5C[C@@](C)(C(=O)O)CC[C@]5(C)CC[C@@]4(C)[C@]3(C)CC[C@@H]12
LD50: 2450 mg/kg

O=C(O)c1ccc2c3c(ccc(C(=O)O)c13)C(=O)OC2=O
LD50: 3510 mg/kg

COc1ccc2c(c1)c(CC(=O)Oc1ccc(NC(C)=O)cc1)c(C)n2C(=O)c1ccc(Cl)cc1
LD50: 887 mg/kg

Nc1c(Cl)cc(C(=O)NC2CC2)cc1Cl
LD50: 170 mg/kg

CCCCC(CC)COC(=O)C=CC(=O)OCC(CC)CCCC (configuration not stated)
LD50: 29200 mg/kg and 14000 mg/kg

CCC(C)c1cc([N+](=O)[O-])cc([N+](=O)[O-])c1OC(=O)SC (configuration not stated)
LD50: 200 mg/kg

Cc1ccc(N(C)C)cc1
LD50: 1650 mg/kg

C[Si](Cl)(Cl)Cl
LD50: 800 mg/kg

CC(N)CN (configuration not stated)
LD50: 2230 mg/kg

COc1cc(NC(=O)OCCCN2CCN(c3ccccc3)CC2)cc(OC)c1OC
LD50: 900 mg/kg

O=S(=O)(CCCl)COCS(=O)(=O)CCCl
LD50: 168 mg/kg

Nc1ccc2nc(C(F)(F)F)[nH]c2c1
LD50: 67 mg/kg

FC(F)(F)c1ccc(Cl)cc1
LD50: 13000 mg/kg

CC(N)CSc1ccc(Cl)cc1 (configuration not stated)
LD50: 600 mg/kg

Cc1cc(=O)nc(C(C)C)[nH]1
LD50: 2700 mg/kg

C=Cc1cccc(Cl)c1
LD50: 5200 mg/kg

OCCOCCN(CCOCCO)CCN(CCOCCO)CCOCCO
LD50: 9900 mg/kg

O=C1c2ccccc2N(C(=O)CN2CCOCC2)CN1c1ccccc1
LD50: 2220 mg/kg and 2140 mg/kg

CC(C)(C(N)=O)c1ccccc1
LD50: 1650 mg/kg

COc1cc(C(=O)N2CCOCC2)cc(OC)c1OC
LD50: 1800 mg/kg

CCOC(=O)CI
LD50: 50 mg/kg

CCNC(=O)C(C)OC(=O)Nc1ccccc1 (configuration not stated)
LD50: 11000 mg/kg

NC(=S)Nc1cc(Cl)ccc1Cl
LD50: 300 mg/kg

CCCCC(CC)COC(CBr)c1ccccc1 (configuration not stated)
LD50: 250 mg/kg

CC1=CC(=C2C(=O)c3ccccc3C2=O)C=CN1CCN1CCCCC1
LD50: 390 mg/kg

CNC(=O)Oc1ccc(N=CN(C)C)c(C)c1
LD50: 7.2 mg/kg

C#CC(OC(=O)C1C(C=C(C)C)C1(C)C)/C(C)=C/CC (configuration not stated)
LD50: 1680 mg/kg

C/N=N/Nc1ccc([N+](=O)[O-])cc1
LD50: 468 mg/kg

CN1CC[C@@]23CCCC[C@@H]2[C@@H]1Cc1ccc(O)cc13
LD50: 1100 mg/kg

CCCCCCCCP(=O)(O)O
LD50: 1890 mg/kg

CC=Cc1ccc(OP(=S)(OC)OC)c(OC)c1
LD50: 250 mg/kg

Cc1cc(C)c(Cc2cc(C)c(C)cc2C)cc1C
LD50: 4500 mg/kg

CCCCn1cnnc1
LD50: 50 mg/kg

COC(=O)C(Cl)Cc1ccc(Cl)cc1 (configuration not stated)
LD50: 1070 mg/kg

O=C1C=CC(=O)N1C(=O)NCNC(=O)N1C(=O)C=CC1=O
LD50: 1420 mg/kg

COc1cccc(C=Nc2c(C)n(C)n(-c3ccccc3)c2=O)c1
LD50: 5600 mg/kg

COc1cccc(N)c1
LD50: 526 mg/kg

NC(=O)C1CCN(CCCN2c3ccccc3Sc3ccc(Cl)cc32)CC1
LD50: 620 mg/kg

CN(Cc1ccccc1)N=O
LD50: 18 mg/kg

C/C(=N/NC(=O)c1ccncc1)c1ccco1
LD50: 110 mg/kg

C=CC1OCC(C)O1 (configuration not stated)
LD50: 890 mg/kg

CNC(=O)Oc1ccccc1C1OCC=CCO1
LD50: 35 mg/kg

COc1ccccc1OCCOC(=O)c1ccccc1OC(C)=O
LD50: 2930 mg/kg

CC(NCCNC(C)c1ccccc1)c1ccccc1 (configuration not stated)
LD50: 1290 mg/kg

CCc1ccc2c(c1)C(=O)c1ccccc1C2=O
LD50: 2800 mg/kg

N#CN
LD50: 1620 mg/kg

CC(=O)c1ccc(O)cc1O
LD50: 2830 mg/kg

BrC(Br)(Br)c1ccc2ccccc2n1
LD50: 6770 mg/kg

CC(C)=NNC(=O)CSc1cc(Oc2ccccc2)ncn1
LD50: 1080 mg/kg

CCOc1ccccc1N1CCN(CCC=Cc2ccc3[nH]c(=O)ccc3c2)CC1
LD50: 500 mg/kg

Oc1ccc(Cl)cc1Cc1ccccc1
LD50: 1700 mg/kg

CN1CCC2(C)CC(Cc3ccc(O)cc32)C1 (configuration not stated)
LD50: 320 mg/kg

Nc1ccc(C(=O)O)cc1
LD50: 8000 mg/kg

CNC(=O)Nc1ccccc1
LD50: 3440 mg/kg
